Measured values as given in ChEMBL document CHEMBL5442219.

Assays:
Conditions in all cases: Compound concentration 10 µM
[1] = target: T1, Alpha-1B adrenergic receptor (Homo sapiens) (UniProt P35368)
T1 sequence (whole entry): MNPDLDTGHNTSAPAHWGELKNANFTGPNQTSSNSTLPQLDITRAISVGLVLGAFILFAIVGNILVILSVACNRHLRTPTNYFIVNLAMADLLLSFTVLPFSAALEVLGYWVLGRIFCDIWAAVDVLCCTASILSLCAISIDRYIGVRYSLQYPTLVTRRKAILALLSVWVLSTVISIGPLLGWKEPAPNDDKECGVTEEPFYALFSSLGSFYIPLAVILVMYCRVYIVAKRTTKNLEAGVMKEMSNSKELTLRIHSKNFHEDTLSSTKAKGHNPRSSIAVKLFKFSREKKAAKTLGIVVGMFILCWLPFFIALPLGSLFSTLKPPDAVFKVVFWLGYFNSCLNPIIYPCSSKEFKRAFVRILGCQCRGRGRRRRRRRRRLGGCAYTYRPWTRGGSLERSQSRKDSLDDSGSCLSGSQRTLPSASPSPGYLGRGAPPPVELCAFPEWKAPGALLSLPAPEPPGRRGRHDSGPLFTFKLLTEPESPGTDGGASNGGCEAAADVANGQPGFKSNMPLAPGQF
Description: PDSP Primary Binding target: ADRA1B - Compounds are tested at 10 uM concentration, plate are incubated at room temperature in the dark for 90 minutes. Reaction are stopped by vacuum filtration onto 0.3% polyethyleneimine soaked filter mats using Filtermate harvester. Scintilation cocktail is then melted onto microwave-dried filters on a hot plate and the radio activity is counted in Microbia counter.

[2] = target: T2, Alpha-1D adrenergic receptor (Homo sapiens) (UniProt P25100)
T2 sequence (whole entry): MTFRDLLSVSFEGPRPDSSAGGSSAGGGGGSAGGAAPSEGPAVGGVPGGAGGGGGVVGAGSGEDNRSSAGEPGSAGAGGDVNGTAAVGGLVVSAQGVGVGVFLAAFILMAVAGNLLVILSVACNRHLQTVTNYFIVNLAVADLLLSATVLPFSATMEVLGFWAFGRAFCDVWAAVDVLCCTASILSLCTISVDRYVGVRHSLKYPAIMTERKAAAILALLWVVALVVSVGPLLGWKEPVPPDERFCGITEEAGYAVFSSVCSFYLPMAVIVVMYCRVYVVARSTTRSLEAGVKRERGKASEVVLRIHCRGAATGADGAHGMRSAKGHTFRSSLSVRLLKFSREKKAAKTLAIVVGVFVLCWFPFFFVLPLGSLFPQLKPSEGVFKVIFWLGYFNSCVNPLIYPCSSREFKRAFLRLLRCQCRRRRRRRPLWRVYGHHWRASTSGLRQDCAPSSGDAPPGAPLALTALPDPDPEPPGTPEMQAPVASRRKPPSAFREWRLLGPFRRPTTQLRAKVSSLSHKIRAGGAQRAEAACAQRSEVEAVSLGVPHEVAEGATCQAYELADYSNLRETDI
Description: PDSP Primary Binding target: ADRA1D - Compounds are tested at 10 uM concentration, plate are incubated at room temperature in the dark for 90 minutes. Reaction are stopped by vacuum filtration onto 0.3% polyethyleneimine soaked filter mats using Filtermate harvester. Scintilation cocktail is then melted onto microwave-dried filters on a hot plate and the radio activity is counted in Microbia counter.

[3] = target: T3, Alpha-2C adrenergic receptor (Homo sapiens) (UniProt P18825)
T3 sequence (whole entry): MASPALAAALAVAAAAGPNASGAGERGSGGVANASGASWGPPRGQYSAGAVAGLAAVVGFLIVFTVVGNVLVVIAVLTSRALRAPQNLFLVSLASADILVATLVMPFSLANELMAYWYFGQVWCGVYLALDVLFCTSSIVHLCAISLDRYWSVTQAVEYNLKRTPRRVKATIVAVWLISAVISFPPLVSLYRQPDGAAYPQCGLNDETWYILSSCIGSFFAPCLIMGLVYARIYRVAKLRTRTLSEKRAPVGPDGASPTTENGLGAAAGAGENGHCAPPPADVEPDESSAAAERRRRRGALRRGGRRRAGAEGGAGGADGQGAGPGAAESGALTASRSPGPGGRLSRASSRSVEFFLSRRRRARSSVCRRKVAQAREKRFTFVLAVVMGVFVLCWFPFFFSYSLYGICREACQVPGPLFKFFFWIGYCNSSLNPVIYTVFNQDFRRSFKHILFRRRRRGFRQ
Description: PDSP Primary Binding target: ADRA2C - Compounds are tested at 10 uM concentration, plate are incubated at room temperature in the dark for 90 minutes. Reaction are stopped by vacuum filtration onto 0.3% polyethyleneimine soaked filter mats using Filtermate harvester. Scintilation cocktail is then melted onto microwave-dried filters on a hot plate and the radio activity is counted in Microbia counter.

[4] = target: T4, 5-hydroxytryptamine receptor 1A (Homo sapiens) (UniProt P08908)
T4 sequence (whole entry): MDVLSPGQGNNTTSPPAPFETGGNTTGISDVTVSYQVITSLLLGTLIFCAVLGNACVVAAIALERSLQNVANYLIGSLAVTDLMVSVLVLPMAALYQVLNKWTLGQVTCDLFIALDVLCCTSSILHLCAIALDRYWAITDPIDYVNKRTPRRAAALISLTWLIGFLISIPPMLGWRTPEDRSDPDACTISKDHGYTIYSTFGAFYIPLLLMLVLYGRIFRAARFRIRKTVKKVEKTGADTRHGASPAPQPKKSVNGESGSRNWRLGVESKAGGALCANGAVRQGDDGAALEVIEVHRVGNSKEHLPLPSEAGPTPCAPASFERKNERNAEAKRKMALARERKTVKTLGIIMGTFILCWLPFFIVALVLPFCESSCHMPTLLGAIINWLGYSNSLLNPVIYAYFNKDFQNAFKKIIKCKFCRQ
Description: PDSP Primary Binding target: HTR1A - Compounds are tested at 10 uM concentration, plate are incubated at room temperature in the dark for 90 minutes. Reaction are stopped by vacuum filtration onto 0.3% polyethyleneimine soaked filter mats using Filtermate harvester. Scintilation cocktail is then melted onto microwave-dried filters on a hot plate and the radio activity is counted in Microbia counter.

[5] = target: 5-hydroxytryptamine receptor 2B (Homo sapiens) (UniProt P41595)
Description: PDSP Primary Binding target: HTR2B - Compounds are tested at 10 uM concentration, plate are incubated at room temperature in the dark for 90 minutes. Reaction are stopped by vacuum filtration onto 0.3% polyethyleneimine soaked filter mats using Filtermate harvester. Scintilation cocktail is then melted onto microwave-dried filters on a hot plate and the radio activity is counted in Microbia counter.

[6] = target: Kappa-type opioid receptor (Homo sapiens) (UniProt P41145)
Description: PDSP Primary Binding target: OPRK1 - Compounds are tested at 10 uM concentration, plate are incubated at room temperature in the dark for 90 minutes. Reaction are stopped by vacuum filtration onto 0.3% polyethyleneimine soaked filter mats using Filtermate harvester. Scintilation cocktail is then melted onto microwave-dried filters on a hot plate and the radio activity is counted in Microbia counter.

[7] = target: Sodium-dependent dopamine transporter (Homo sapiens) (UniProt Q01959)
Description: PDSP Primary Binding target: SLC6A3 - Compounds are tested at 10 uM concentration, plate are incubated at room temperature in the dark for 90 minutes. Reaction are stopped by vacuum filtration onto 0.3% polyethyleneimine soaked filter mats using Filtermate harvester. Scintilation cocktail is then melted onto microwave-dried filters on a hot plate and the radio activity is counted in Microbia counter.

[8] = target: Sodium-dependent serotonin transporter (Homo sapiens) (UniProt P31645)
Description: PDSP Primary Binding target: SLC6A4 - Compounds are tested at 10 uM concentration, plate are incubated at room temperature in the dark for 90 minutes. Reaction are stopped by vacuum filtration onto 0.3% polyethyleneimine soaked filter mats using Filtermate harvester. Scintilation cocktail is then melted onto microwave-dried filters on a hot plate and the radio activity is counted in Microbia counter.

[9] = target: Translocator protein (Homo sapiens) (UniProt P30536)
Description: PDSP Primary Binding target: TSPO - Compounds are tested at 10 uM concentration, plate are incubated at room temperature in the dark for 90 minutes. Reaction are stopped by vacuum filtration onto 0.3% polyethyleneimine soaked filter mats using Filtermate harvester. Scintilation cocktail is then melted onto microwave-dried filters on a hot plate and the radio activity is counted in Microbia counter.

[10] = target: T5, 5-hydroxytryptamine receptor 2C (Homo sapiens) (UniProt P28335)
T5 sequence (whole entry): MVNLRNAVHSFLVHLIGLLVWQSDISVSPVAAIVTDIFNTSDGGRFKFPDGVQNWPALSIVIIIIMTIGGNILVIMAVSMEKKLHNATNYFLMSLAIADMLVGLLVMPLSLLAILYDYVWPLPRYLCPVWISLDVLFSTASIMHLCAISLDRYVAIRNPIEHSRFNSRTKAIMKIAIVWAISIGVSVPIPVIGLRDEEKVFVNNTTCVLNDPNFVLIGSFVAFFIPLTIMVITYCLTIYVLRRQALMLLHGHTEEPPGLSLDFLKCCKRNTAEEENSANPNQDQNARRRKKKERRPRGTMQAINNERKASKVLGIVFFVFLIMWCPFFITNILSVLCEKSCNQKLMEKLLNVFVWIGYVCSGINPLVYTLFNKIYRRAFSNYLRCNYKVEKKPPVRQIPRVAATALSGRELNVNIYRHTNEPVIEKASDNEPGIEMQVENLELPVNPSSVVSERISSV
Description: PDSP Primary Binding target: HTR2C - Compounds are tested at 10 uM concentration, plate are incubated at room temperature in the dark for 90 minutes. Reaction are stopped by vacuum filtration onto 0.3% polyethyleneimine soaked filter mats using Filtermate harvester. Scintilation cocktail is then melted onto microwave-dried filters on a hot plate and the radio activity is counted in Microbia counter.

Sequence of Sodium-dependent serotonin transporter (Homo sapiens) (P31645 whole entry, looked up): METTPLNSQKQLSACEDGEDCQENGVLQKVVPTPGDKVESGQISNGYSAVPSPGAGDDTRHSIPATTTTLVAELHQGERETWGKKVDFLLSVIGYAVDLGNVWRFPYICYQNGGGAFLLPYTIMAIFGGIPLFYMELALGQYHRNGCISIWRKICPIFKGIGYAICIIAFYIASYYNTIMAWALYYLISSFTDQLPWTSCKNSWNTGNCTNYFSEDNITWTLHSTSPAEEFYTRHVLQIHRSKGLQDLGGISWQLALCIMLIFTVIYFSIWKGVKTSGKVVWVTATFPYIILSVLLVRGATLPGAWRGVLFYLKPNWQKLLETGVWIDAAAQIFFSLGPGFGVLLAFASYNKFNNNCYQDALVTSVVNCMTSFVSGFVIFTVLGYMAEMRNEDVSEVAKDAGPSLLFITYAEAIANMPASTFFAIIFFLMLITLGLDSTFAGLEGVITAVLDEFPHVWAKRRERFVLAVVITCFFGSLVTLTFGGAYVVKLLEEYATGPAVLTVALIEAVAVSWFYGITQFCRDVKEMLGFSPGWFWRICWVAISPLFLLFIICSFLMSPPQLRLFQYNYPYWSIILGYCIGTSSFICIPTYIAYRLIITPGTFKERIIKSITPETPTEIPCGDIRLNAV
Sequence of Sodium-dependent dopamine transporter (Homo sapiens) (Q01959 whole entry): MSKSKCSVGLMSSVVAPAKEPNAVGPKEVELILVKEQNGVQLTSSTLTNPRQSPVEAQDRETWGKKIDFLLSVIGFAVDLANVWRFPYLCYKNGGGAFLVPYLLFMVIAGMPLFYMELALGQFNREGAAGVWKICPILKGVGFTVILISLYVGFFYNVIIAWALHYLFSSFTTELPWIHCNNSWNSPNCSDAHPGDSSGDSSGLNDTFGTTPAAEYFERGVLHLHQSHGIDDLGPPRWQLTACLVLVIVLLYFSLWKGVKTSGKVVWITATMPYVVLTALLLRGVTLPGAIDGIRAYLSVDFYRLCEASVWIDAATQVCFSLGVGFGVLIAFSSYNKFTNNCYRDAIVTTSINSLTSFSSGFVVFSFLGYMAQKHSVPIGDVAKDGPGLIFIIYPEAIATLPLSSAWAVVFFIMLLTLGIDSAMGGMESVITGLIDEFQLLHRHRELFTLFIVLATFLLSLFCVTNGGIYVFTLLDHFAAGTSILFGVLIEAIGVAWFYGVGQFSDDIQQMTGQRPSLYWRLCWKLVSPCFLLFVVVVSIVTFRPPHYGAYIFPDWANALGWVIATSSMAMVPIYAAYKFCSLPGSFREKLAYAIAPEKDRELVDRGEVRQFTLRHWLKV
Sequence of Translocator protein (Homo sapiens) (P30536 whole entry): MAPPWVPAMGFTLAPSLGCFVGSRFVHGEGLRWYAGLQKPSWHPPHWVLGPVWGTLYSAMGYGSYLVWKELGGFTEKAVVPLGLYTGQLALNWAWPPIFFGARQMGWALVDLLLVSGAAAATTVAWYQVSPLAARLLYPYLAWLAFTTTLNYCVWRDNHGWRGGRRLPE
Sequence of Kappa-type opioid receptor (Homo sapiens) (P41145 whole entry): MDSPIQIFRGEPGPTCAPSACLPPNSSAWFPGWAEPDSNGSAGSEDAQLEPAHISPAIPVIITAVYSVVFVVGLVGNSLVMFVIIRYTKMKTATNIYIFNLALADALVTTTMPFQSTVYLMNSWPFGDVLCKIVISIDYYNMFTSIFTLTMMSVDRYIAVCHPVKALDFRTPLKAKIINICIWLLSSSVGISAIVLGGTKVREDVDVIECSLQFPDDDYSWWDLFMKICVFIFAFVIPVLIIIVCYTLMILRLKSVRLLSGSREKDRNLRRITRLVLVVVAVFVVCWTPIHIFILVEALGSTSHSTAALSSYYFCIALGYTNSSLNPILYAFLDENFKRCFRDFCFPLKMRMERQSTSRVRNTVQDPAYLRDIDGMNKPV
Sequence of 5-hydroxytryptamine receptor 2B (Homo sapiens) (P41595 whole entry): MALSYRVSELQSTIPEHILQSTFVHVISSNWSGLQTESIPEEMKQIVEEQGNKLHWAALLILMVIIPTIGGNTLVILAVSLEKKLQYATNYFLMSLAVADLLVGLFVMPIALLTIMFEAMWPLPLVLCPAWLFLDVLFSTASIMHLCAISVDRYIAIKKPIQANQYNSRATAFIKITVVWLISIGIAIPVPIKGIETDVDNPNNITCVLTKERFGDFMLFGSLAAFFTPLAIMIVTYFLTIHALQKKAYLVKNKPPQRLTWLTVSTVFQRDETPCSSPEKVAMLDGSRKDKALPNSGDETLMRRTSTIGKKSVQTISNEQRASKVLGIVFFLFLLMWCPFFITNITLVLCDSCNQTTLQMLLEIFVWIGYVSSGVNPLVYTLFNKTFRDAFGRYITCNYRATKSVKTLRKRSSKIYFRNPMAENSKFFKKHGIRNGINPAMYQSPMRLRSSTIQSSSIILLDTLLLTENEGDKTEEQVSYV

SMILES	inhibition [1] [%]	inhibition [2] [%]	inhibition [3] [%]	inhibition [4] [%]	inhibition [5] [%]	inhibition [6] [%]	inhibition [7] [%]	inhibition [8] [%]	inhibition [9] [%]	inhibition [10] [%]
COc1ccc(CNC(=O)c2cc(-c3cncc(Cl)c3)cnc2-c2ccccn2)nc1OC	0.01	-7.71	7.09	-8.5	-6.96	23.7	36.3	23.7	17.5	
CN1CCCC(n2nc(Cc3ccc(Cl)cc3)c3ccccc3c2=O)CC1 (configuration not stated)	72.7	88.2	64.5	5.72	89.5		25.9	19.8	12.9	93.7
c1cc(CN2CCCNCCNCCCNCC2)ccc1CN1CCCNCCNCCCNCC1	42.2	-0.54	66.3	-6.66		13.8	53.6	22.7	7.76	
Cc1nn(C)c(C)c1-c1cccc2c1CC[C@H](N(C)C)C2	1.62	2.35	45.4	51.8	84.9	23.1	37.9	3.62		13.1
CN1CCC(C(=O)c2cccc(NC(=O)c3c(F)cc(F)cc3F)n2)CC1	8.88	6.55	6.36	4.22	60.6	69.2	42.1	10.4		6.11
CO[C@@H]1COCC[C@@H]1N[C@@H]1CC[C@@](C(=O)N2CCc3ncc(C(F)(F)F)cc3C2)(C(C)C)C1	2.58	-8.81	3.2	19.6	-6.19	25.9	14.2	-2.04	11.4	
NCCc1c[nH]c2ccc(C(N)=O)cc12	3.04	14.8	15.4	91.4	78.8	2.24	44.6	49.3		71.4
NCCc1cn(S(=O)(=O)c2c(Cl)nc3sccn23)c2ccccc12	51.4	38.2	42.5	16.6	98.3	32.8	67.9	40.4	-4.24	
O=c1ccn([C@@H]2O[C@H](COP(=O)(O)OP(=O)(O)OP(=O)(O)O)[C@@H](O)[C@H]2O)c(=O)[nH]1		11.6	6.85	26.3	-4.24	47.6	-7.04	13.8	56.6	9.66
CCc1cc2c(cc1CC)CC(NC[C@H](O)c1ccc(O)c3[nH]c(=O)ccc13)C2	59	75.3	30	1.29	92.6		83.1	52.9		66.8
C[N+]1(C)[C@@H]2C[C@@H](OC(=O)C(O)(c3cccs3)c3cccs3)C[C@H]1[C@@H]1O[C@@H]12	-7.35	13.1	-0.27		11.5	-0.32	-2.43	30	66.3	-6.52
CCCCCCCCCCCCC/C=C/[C@@H](O)[C@@H](N)COP(=O)(O)O	-1.45	9.46	-4.87	-8.27	11.5	6.18		-0.47	64.6	-2.94
Cc1ccc2c(c1)c1c(n2CCc2ccc(C)nc2)CCN(C)C1	85	84.6	73.6	39.1	76.9	20		-8.68	11.9	81.4
CN[C@@H]1CCc2[nH]c3ccc(C(N)=O)cc3c2C1	93.5	19.6		56.4	6.12	5.76		7.67	-4.51	18.2
Cc1ccc(O)c([C@H](CCN(C(C)C)C(C)C)c2ccccc2)c1	17.4	1.72	14.9	-6.09	32.5	31	16.2	20.8	13.8	
N#Cc1c[nH]c2c(C(=O)N3CCN(CCc4ccc(F)cc4)CC3)cccc12	36.8	-4.02	38.2	21.2	57.1	7.51	36.2	60.4		58.7
Cc1cc(C)cc(-c2cnc3cc(Cl)c(-c4cccc(O)c4)cc3c2OCCCN)c1	81.8	53.7	68	64.1	88.6	60.7		48.9	79.5	79.8
c1nc(CC2CCNCC2)c[nH]1	15.3	7.26	-1.91	-10	30.4		14.6	1.26		
